{"source": "patent US20230181541A1", "about": "“COMPOSITIONS AND METHODS FOR TREATING OBSESSIVE-COMPULSIVE DISORDER” (Biohaven Therapeutics Ltd., priority 2020, published 2023)", "system": "OCD patients with inadequate response to standard of care treatment", "details": "for YBOCS Compulsions Subscale Change from Baseline, LS Mean / YBOCS Compulsions Subscale Change from Baseline, Troriluzole vs Placebo Difference Estimate / YBOCS Obsessions Subscale Change from Baseline, LS Mean / YBOCS Obsessions Subscale Change from Baseline, Troriluzole vs Placebo Difference Estimate / YBOCS Total Change from Baseline, Troriluzole vs Placebo Difference Estimate / YBOCS Total Change from Baseline, LS Mean / YBOCS Total Score Change from Baseline, LS Mean: MITT data set, MMRM; for YBOCS Total Score Change from Baseline, LS Mean: only subjects <= median baseline YBOCS total = 26, not validated", "method": "In some embodiments of the invention, the individual treated according to the claimed method is assessed using the Yale Brown Obsessive Compulsive Scale (“Y-BOCS”). See Goodman et al., Arch. Gen. Psychiatry, 1989, 46, 1006-1011. According to this system, an individual is scored using a symptom checklist by asking the individual about specific obsessions and compulsions. Such symptoms are broadly categorized as aggressive obsessions, contamination obsessions, sexual obsessions, hoarding/saving obsessions, religious obsessions, obsession with need for symmetry or exactness, miscellaneous obsessions, somatic obsessions, cleaning/washing compulsions, checking compulsions, repeating rituals, counting compulsions, ordering/arranging compulsions, and miscellaneous compulsions. Each of these categories is further divided by subcategory of more specific symptoms. Individuals are scored according to the answers provided. Scores range from 0-7 for subclinical, 8-15 for mild, 16-23 for moderate, 24-31 for severe, and 32-40 for extreme severity.\nSubjects receive a dose of 140 mg QD for the first four (4) weeks, and the dose is then increased to 200 mg QD for the duration of the study. Down titration is only allowed to address tolerability issues**. Eligible subjects include those who perceived benefit in earlier phases or for whom the Principal Investigator (PI) believes extended treatment with BHV-4157 would offer an acceptable risk-benefit profile***. Subjects start the Extension phase on the dose that was taken at the end of the Randomization phase. Subjects receiving placebo in the randomization phase are blindly switched to a 140 mg dose QD for the first 4 week, and the dose is then increased to 200 mg QD (at the Week 4 visits). Down titration is only allowed to address tolerability issues. All visits after Week 4 are open-label****.\nSubjects who are stable on Standard of Care (SOC) medication and having an inadequate response to SOC are randomized to additionally receive placebo (QD) or troriluzole for 12 weeks (200 mg QD, after four weeks at 140 mg QD). Subjects completing the Randomization Phase are offered approximately 48 weeks of open-label treatment. The study is conducted from December 2017 to June 2020 with 242 subjects randomized at over 56 sites. The full study details are available online at https://clinicaltrials.gov/ct2/show/study/NCT03299166?term=biohaven&cond=Obsessive-Compulsive+Disorder&draw=2&rank=1.\nThe study involves subjects with a primary diagnosis of OCD as per Diagnostic and Statistical Manual of Mental Disorders, Fifth Edition, as confirmed by the MINI at screening.\nDuration of the subject's illness must be equal to or greater than 1 year.\nThe Clinical Global Impression Score (CGI-S) must be equal to or greater than 4 at screening and baseline.\nSubjects are excluded with a history of more than two (2) previous failed treatment trials of SSRIs, clomipramine, venlafaxine, or desvenlafaxine, (not including the current SSRI trial) given for an adequate duration at an adequate dose as defined by the MGH-TRQ-OCD.\nSubjects are excluded if they display acute suicidality or suicide attempt or self-injurious behavior in the last 12 months.\nSubjects are excluded if they have a Brown Assessment of Beliefs (BABS) score of greater than 17 at screening and baseline.\nUse of a stimulant, neuroleptic (antipsychotic), mood stabilizer and glutamate agent (e.g., topiramate, lamotrigine, N-acetylcysteine, ketamine, memantine, sodium valproate) is prohibited within the 4 weeks prior to screening and during the study.\nCurrent daily anxiolytic or benzodiazepine use is prohibited.", "key": {"[1]": {"details": "Week 4, only subjects > baseline YBOCS = 26 (median)"}, "[2]": {"details": "Week 8, only subjects > baseline YBOCS = 26 (median)"}, "[3]": {"details": "Week 12, only subjects > baseline YBOCS = 26 (median)"}}, "note": "Read-outs that look alike come from different tables or passages of the source.", "data": [{"smiles": "CN(CC(=O)Nc1nc2ccc(OC(F)(F)F)cc2s1)C(=O)CNC(=O)CN", "note": "[Troriluzole]", "values": [{"measurement": "Y-BOCS outcome versus placebo (in words)", "setting": "200 mg once daily as adjunctive therapy, all study timepoints (weeks 4 to 12)", "value": "consistent numerical improvement over placebo"}, {"measurement": "YBOCS Compulsions Subscale Change from Baseline, LS Mean", "setting": "Week 4", "value": "−1.72"}, {"measurement": "YBOCS Compulsions Subscale Change from Baseline, Troriluzole vs Placebo Difference Estimate", "setting": "Week 4", "value": "−0.44"}, {"measurement": "YBOCS Obsessions Subscale Change from Baseline, LS Mean", "setting": "Week 4", "value": "−1.67"}, {"measurement": "YBOCS Obsessions Subscale Change from Baseline, Troriluzole vs Placebo Difference Estimate", "setting": "Week 4", "value": "−0.02"}, {"measurement": "YBOCS Total Change from Baseline, Troriluzole vs Placebo Difference Estimate", "setting": "Week 4", "value": "−0.5"}, {"measurement": "YBOCS Total Change from Baseline, LS Mean", "setting": "Week 4, 140 mg QD first 4 weeks then 200 mg QD, added to SOC", "value": "−3.4", "unit": "points"}, {"measurement": "YBOCS Total Score Change from Baseline, LS Mean", "setting": "Week 4", "value": "−2.8"}, {"measurement": "YBOCS Total Change from Baseline, LS Mean", "setting": "[1]", "value": "−4.1", "unit": "points"}, {"measurement": "YBOCS Total Change from Baseline, Troriluzole vs Placebo Difference Estimate", "setting": "[1]", "value": "−0.6"}, {"measurement": "YBOCS Compulsions Subscale Change from Baseline, LS Mean", "setting": "Week 8", "value": "−2.61"}, {"measurement": "YBOCS Compulsions Subscale Change from Baseline, Troriluzole vs Placebo Difference Estimate", "setting": "Week 8", "value": "−1.20"}, {"measurement": "YBOCS Obsessions Subscale Change from Baseline, LS Mean", "setting": "Week 8", "value": "−2.50"}, {"measurement": "YBOCS Obsessions Subscale Change from Baseline, Troriluzole vs Placebo Difference Estimate", "setting": "Week 8", "value": "−0.36"}, {"measurement": "YBOCS Total Change from Baseline, Troriluzole vs Placebo Difference Estimate", "setting": "Week 8", "value": "−1.5"}, {"measurement": "YBOCS Total Change from Baseline, LS Mean", "setting": "Week 8, 140 mg QD first 4 weeks then 200 mg QD, added to SOC", "value": "−5.1", "unit": "points"}, {"measurement": "YBOCS Total Score Change from Baseline, LS Mean", "setting": "Week 8", "value": "−4.4"}, {"measurement": "YBOCS Total Change from Baseline, LS Mean", "setting": "[2]", "value": "−6.0", "unit": "points"}, {"measurement": "YBOCS Total Change from Baseline, Troriluzole vs Placebo Difference Estimate", "setting": "[2]", "value": "−2.9"}, {"measurement": "YBOCS Compulsions Subscale Change from Baseline, LS Mean", "setting": "Week 12", "value": "−3.01"}, {"measurement": "YBOCS Compulsions Subscale Change from Baseline, Troriluzole vs Placebo Difference Estimate", "setting": "Week 12", "value": "−0.64"}, {"measurement": "YBOCS Obsessions Subscale Change from Baseline, LS Mean", "setting": "Week 12", "value": "−2.91"}, {"measurement": "YBOCS Obsessions Subscale Change from Baseline, Troriluzole vs Placebo Difference Estimate", "setting": "Week 12", "value": "−0.36"}, {"measurement": "YBOCS Total Change from Baseline, Troriluzole vs Placebo Difference Estimate", "setting": "Week 12", "value": "−1.0"}, {"measurement": "YBOCS Total Change from Baseline, LS Mean", "setting": "Week 12, 140 mg QD first 4 weeks then 200 mg QD, added to SOC", "value": "−5.9", "unit": "points"}, {"measurement": "YBOCS Total Score Change from Baseline, LS Mean", "setting": "Week 12", "value": "−5.0"}, {"measurement": "YBOCS Total Change from Baseline, LS Mean", "setting": "[3]", "value": "−7.0", "unit": "points"}, {"measurement": "YBOCS Total Change from Baseline, Troriluzole vs Placebo Difference Estimate", "setting": "[3]", "value": "−2.4"}, {"measurement": "safety profile", "setting": "in vivo", "value": "safe and well tolerated"}]}]}
